Test results published in PMC5524571 (Molecular cell, 2012).

Tests used:
[1] = target: T1, MdfA (Escherichia coli, UniProt P0AEY8); conditions: several pH values (pH 6 to 8.5)
[2] = target: T1, MdfA; assay: substrate-induced proton release from purified MdfA; assay type: binding; conditions: unbuffered solution, 2 µM MdfA, 500 µM EtBr
[3] = target: Asp34 (UniProt position 34, TYIGNDMIQPG); assay: fluorescence; conditions: Detergent-solubilised, folded; competition between TPP and protons

T1 sequence (P0AEY8 whole entry): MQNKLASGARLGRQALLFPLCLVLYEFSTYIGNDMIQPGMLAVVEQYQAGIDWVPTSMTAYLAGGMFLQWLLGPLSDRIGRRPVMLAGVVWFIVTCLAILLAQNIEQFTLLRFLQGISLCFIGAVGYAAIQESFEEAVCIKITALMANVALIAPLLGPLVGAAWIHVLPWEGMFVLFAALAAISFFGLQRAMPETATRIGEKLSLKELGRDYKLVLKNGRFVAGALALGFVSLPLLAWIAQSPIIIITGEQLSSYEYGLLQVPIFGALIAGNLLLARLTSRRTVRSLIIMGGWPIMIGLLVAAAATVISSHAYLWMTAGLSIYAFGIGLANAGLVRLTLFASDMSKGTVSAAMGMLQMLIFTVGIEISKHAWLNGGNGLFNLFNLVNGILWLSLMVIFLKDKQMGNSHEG

Molecule: c1ccc([P+](c2ccccc2)(c2ccccc2)c2ccccc2)cc1 [TPP]
- dissociation constant [1]: the affinity of purified, detergent-solubilized MdfA for its substrate tetraphenylphosphonium (TPP) was measured

Molecule: CC[n+]1c(-c2ccccc2)c2cc(N)ccc2c2ccc(N)cc21 [ethidium bromide]
- substrate-induced proton release from purified MdfA (pH electrode) [2]: adding TPP or EtBr caused rapid acidification

Molecule: Multidrug transporter MdfA (wild type, His6-tagged) (Escherichia coli)
- pKa [3]: 6.84 ± 0.06
